According to US20240343706A1, “PIPERIDINE-2,6-DIONE DERIVATIVES WHICH BIND TO CEREBLON, AND METHODS OF USE THEREOF” (Captor Therapeutics S.A., priority 2019, published 2024):

What was measured:
[1] = target: CRBN-DDB1 protein complex (Homo sapiens, UniProt Q96SW2); experiment: Fluorescence polarization (FP) assay, displacement of Cy5-labelled thalidomide; conditions: 25 nM CRBN-DDB1, 5 nM Cy5-labelled thalidomide, read-out: CRBN binding Ki
Description: CRBN-DDB1 protein complex was mixed with Cy5-labelled thalidomide and a compound to be tested (the “test compound”). […] The test solution was added to a 384-well assay plate.
The plate was spun-down (1 min, 1000 rpm, 22° C.) and then shaken using a VibroTurbulator for 10 min at room temperature (20-25° C.), with the frequency set to level 3. The assay plate with protein and the tracer was incubated for 60 min at room temperature (20-25° C.) prior to read-out with a plate reader.
The FP experiment was carried out with various concentrations of the test compounds in order to measure Ki values.

[2] = system: SALL4; experiment: SALL4 degradation assay, Kelly cell line (western blot densitometry); assay type: cell-based; conditions: summary Table 10; Kelly cells, 24 H; 20 μM (some compounds 10 and 20 μM)
Description: (§1) After primary and secondary Ab staining, the membranes were washed and signals developed. The densitometry analysis was implemented to obtain the numeric values used later in the protein level evaluation process.

[3] = system: IKZF1; experiment: IKZF1 degradation assay, H929 cell line (western blot densitometry); assay type: cell-based; conditions: H929 cells; for % of protein reduction based on densitometry values, IKZF 1 (24 H): summary Table 10, 20 μM (some compounds 10 and 20 μM)
Description: as §1

[4] = system: CK1α; experiment: CK1α degradation assay, Kelly cell line (western blot densitometry); assay type: cell-based; conditions: summary Table 10; Kelly cells, 24 H; 20 μM (some compounds 10 and 20 μM)
Description: as §1

[5] = system: IKZF3; experiment: IKZF3 degradation assay, H929 cell line (western blot densitometry); assay type: cell-based; conditions: H929 cells

Sequence of CRBN-DDB1 protein complex (Q96SW2 whole entry): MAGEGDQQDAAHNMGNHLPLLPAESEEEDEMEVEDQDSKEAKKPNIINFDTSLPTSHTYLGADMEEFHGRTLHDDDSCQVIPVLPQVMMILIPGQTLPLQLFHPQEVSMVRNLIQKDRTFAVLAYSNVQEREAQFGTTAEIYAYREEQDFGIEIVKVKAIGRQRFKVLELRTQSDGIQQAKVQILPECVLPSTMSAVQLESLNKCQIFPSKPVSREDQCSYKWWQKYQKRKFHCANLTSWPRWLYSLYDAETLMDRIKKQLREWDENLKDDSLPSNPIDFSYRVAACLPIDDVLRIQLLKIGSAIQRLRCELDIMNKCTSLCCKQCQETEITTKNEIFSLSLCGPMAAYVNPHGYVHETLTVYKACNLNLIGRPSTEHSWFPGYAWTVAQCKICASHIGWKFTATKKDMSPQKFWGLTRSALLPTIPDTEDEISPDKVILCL
Sequence of CRBN-DDB1 protein complex (Q16531 whole entry partner): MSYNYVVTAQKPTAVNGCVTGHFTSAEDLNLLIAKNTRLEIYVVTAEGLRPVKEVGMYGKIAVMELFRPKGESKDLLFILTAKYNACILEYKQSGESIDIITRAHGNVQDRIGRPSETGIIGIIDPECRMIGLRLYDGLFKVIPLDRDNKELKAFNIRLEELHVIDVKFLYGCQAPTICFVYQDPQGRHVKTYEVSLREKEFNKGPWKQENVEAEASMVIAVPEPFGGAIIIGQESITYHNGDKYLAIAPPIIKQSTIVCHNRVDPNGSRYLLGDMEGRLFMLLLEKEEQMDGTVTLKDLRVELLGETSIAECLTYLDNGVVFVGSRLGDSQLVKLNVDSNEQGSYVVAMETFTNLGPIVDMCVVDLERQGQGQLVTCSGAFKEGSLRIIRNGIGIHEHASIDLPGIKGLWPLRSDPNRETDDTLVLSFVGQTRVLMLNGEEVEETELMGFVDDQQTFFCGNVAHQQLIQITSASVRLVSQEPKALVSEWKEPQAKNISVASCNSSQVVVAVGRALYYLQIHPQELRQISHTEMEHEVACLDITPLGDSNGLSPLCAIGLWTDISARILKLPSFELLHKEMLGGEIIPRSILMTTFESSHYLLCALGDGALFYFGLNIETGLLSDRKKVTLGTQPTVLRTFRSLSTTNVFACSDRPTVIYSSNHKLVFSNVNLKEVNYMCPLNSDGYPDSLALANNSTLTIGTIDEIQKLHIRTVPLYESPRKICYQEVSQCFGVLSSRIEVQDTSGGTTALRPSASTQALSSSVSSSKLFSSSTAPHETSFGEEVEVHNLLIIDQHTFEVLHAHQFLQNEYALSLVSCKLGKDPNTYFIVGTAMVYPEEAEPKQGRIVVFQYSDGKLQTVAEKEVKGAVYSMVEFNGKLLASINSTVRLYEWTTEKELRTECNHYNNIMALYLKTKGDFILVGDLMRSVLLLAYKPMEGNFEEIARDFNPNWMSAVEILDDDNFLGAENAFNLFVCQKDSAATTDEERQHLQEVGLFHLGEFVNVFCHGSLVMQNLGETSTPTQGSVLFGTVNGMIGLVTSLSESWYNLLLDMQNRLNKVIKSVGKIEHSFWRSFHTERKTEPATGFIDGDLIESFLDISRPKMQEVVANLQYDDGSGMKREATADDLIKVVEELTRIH

O=C1CCC(NC(=O)c2cncc3[nH]cnc23)C(=O)N1 (stereo not drawn) [Compound 10, N-(2,6-dioxopiperidin-3-yl)-3H-imidazo[4,5-c]pyridine-7-carboxamide]
Ki [1]: 1 to 10 µM

Cc1cc2cccc(C(=O)NC3CCC(=O)NC3=O)c2s1 (stereo not drawn) [Compound 41, N-(2,6-dioxopiperidin-3-yl)-2-methylbenzo[b]thiophene-7-carboxamide]
Ki [1]: 1 to 10 µM

N#Cc1nc2c(C(=O)NC3CCC(=O)NC3=O)cccc2[nH]1 (stereo not drawn) [Compound 22, 2-cyano-N-(2,6-dioxopiperidin-3-yl)-1H-benzo[d]imidazole-4-carboxamide]
Ki [1]: < 1 µM

O=C1CCC(NC(=O)c2ccnc3[nH]cnc23)C(=O)N1 (stereo not drawn) [Compound 9, N-(2,6-dioxopiperidin-3-yl)-3H-imidazo[4,5-b]pyridine-7-carboxamide]
Ki [1]: 1 to 10 µM

Cc1nc2c(C(=O)NC3CCC(=O)NC3=O)c(OCC(=O)NCCCCCCCCNC(=O)C[C@@H]3N=C(c4ccc(Cl)cc4)c4c(sc(C)c4C)-n4c(C)nnc43)ccc2[nH]1 (stereo partly drawn) [Compound 67, 6-(2-((8-(2-((S)-4-(4-chlorophenyl)-2,3,9-trimethyl-6H-thieno[3,2-f][1,2,4]triazolo[4,3-a][1,4]diazepin-6-yl)acetamido)octyl)amino)-2-oxoethoxy)-N-(2,6-dioxopiperidin-3-yl)-2-methyl-1H-benzo[d]imidazole-7-carboxamide]
Ki [1]: 1 to 10 µM

CCCCCC(=O)Nc1cc(C(=O)NC2CCC(=O)NC2=O)c2c(c1)ncn2C (stereo not drawn) [Compound 6, N-(2,6-dioxopiperidin-3-yl)-5-hexanamido-1-methyl-1H-benzo[d]imidazole-7-carboxamide]
% of protein reduction based on densitometry values, SALL4 (24 H) [2]: ≤25% (≤25% for 0-25% of SALL4 protein reduction)
% of protein reduction based on densitometry values, IKZF 1 (24 H) [3]: ≤25% (≤25% for 0-25% of IKZF1 protein reduction)
% of protein reduction based on densitometry values, CK1α (24 H) [4]: ≤25% (≤25% for 0-25% of CK1a protein reduction)

O=C1CCC(NC(=O)c2cccc3c(-c4cccs4)n[nH]c23)C(=O)N1 (stereo not drawn) [Compound 43, N-(2,6-dioxopiperidin-3-yl)-3-(thiophen-2-yl)-1H-indazole-7-carboxamide]
Ki [1]: 1 to 10 µM

O=C1CCC(NC(=O)c2csc3[nH]cnc23)C(=O)N1 (stereo not drawn) [Compound 60, N-(2,6-dioxopiperidin-3-yl)-1H-thieno[2,3-d]imidazole-6-carboxamide]
Ki [1]: 1 to 10 µM

O=C1CCC(NC(=O)c2nccc3[nH]cnc23)C(=O)N1 (stereo not drawn) [Compound 11, N-(2,6-dioxopiperidin-3-yl)-1H-imidazo[4,5-c]pyridine-4-carboxamide]
Ki [1]: 1 to 10 µM

O=C1CCC(NC(=O)c2cccc3[nH]c(=O)[nH]c23)C(=O)N1 (stereo not drawn) [Compound 3, N-(2,6-dioxopiperidin-3-yl)-2-oxo-2,3-dihydro-1H-benzo[d]imidazole-4-carboxamide]
% of protein reduction based on densitometry values, SALL4 (24 H) [2]: ≤25% (≤25% for 0-25% of SALL4 protein reduction)
% of protein reduction based on densitometry values, IKZF 1 (24 H) [3]: ≤25% (≤25% for 0-25% of IKZF1 protein reduction)
% of protein reduction based on densitometry values, CK1α (24 H) [4]: ≤25% (≤25% for 0-25% of CK1a protein reduction)

Cc1sc2c(c1C)C(c1ccc(Cl)cc1)=N[C@@H](CC(=O)Nc1ccc(OCCOCCOCCNC(=O)CCc3nc4c(C(=O)NC5CCC(=O)NC5=O)cccc4[nH]3)cc1)c1nnc(C)n1-2 (stereo partly drawn) [Compound 63, 2-(3-((2-(2-(2-(4-(2-((S)-4-(4-chlorophenyl)-2,3,9-trimethyl-6H-thieno[3,2-f][1,2,4]triazolo[4,3-a][1,4]diazepin-6-yl)acetamido)phenoxy)ethoxy)ethoxy)ethyl)amino)-3-oxopropyl)-N-(2,6-dioxopiperidin-3-yl)-1H-benzo[d]imidazole-7-carboxamide]
Ki [1]: 1 to 10 µM

Nc1ccc2[nH]c(C(F)(F)F)nc2c1C(=O)NC1CCC(=O)NC1=O (stereo not drawn) [Compound 26, 6-amino-N-(2,6-dioxopiperidin-3-yl)-2-(trifluoromethyl)-1H-1,3-benzodiazole-7-carboxamide]
Ki [1]: 1 to 10 µM

O=C1CCC(NC(=O)c2cccc3[nH]nnc23)C(=O)N1 (stereo not drawn) [Compound 55, N-(2,6-dioxopiperidin-3-yl)-1H-benzo[d][1,2,3]triazole-4-carboxamide]
Ki [1]: 1 to 10 µM
% of IKZF3 protein reduction based on densitometry values, IKZF3 Band I ([5]; 10 μM, 24 h): ≤25% (≤25% for 0-25% of IKZF3 protein reduction)
% of IKZF3 protein reduction based on densitometry values, IKZF3 Band II ([5]; 10 μM, 24 h): ≤25% (≤25% for 0-25% of IKZF3 protein reduction)
% of IKZF3 protein reduction based on densitometry values, IKZF3 Band I ([5]; 20 μM, 24 h): ≤25% (≤25% for 0-25% of IKZF3 protein reduction)
% of IKZF3 protein reduction based on densitometry values, IKZF3 Band II ([5]; 20 μM, 24 h): ≤25% (≤25% for 0-25% of IKZF3 protein reduction)

O=C1CCC(NC(=O)c2cccc3c(Br)n[nH]c23)C(=O)N1 (stereo not drawn) [Compound 42, 3-bromo-N-(2,6-dioxopiperidin-3-yl)-1H-indazole-7-carboxamide]
Ki [1]: 10 to 50 µM

O=C1CCC(NC(=O)c2cccc3nc[nH]c23)C(=O)N1 (stereo not drawn) [Compound 2, N-(2,6-dioxopiperidin-3-yl)-1H-1,3-benzodiazole-7-carboxamide]
Ki [1]: 1 to 10 µM

Cc1nc2cccc(C(=O)NC3CCC(=O)NC3=O)c2s1 (stereo not drawn) [Compound 53, N-(2,6-dioxopiperidin-3-yl)-2-methylbenzo[d]thiazole-7-carboxamide]
Ki [1]: 1 to 10 µM

Nc1ccc2cn[nH]c2c1C(=O)NC1CCC(=O)NC1=O (stereo not drawn) [Compound 48, 6-amino-N-(2,6-dioxopiperidin-3-yl)-1H-indazole-7-carboxamide]
Ki [1]: 1 to 10 µM

O=C1CCC(NC(=O)c2cc(Br)cc3cn[nH]c23)C(=O)N1 (stereo not drawn) [Compound 47, 5-bromo-N-(2,6-dioxopiperidin-3-yl)-1H-indazole-7-carboxamide]
Ki [1]: 1 to 10 µM

Cc1nc2cccc(C(=O)NC3CCC(=O)NC3=O)c2o1 (stereo not drawn) [Compound 52, N-(2,6-dioxopiperidin-3-yl)-2-methylbenzo[d]oxazole-7-carboxamide]
Ki [1]: 1 to 10 µM

Cc1sc2c(c1C)C(c1ccc(Cl)cc1)=N[C@@H](CC(=O)Nc1ccc(OCCOCCOCCOCCNc3cccc4c3C(=O)N(C3CCC(=O)NC3=O)C4=O)cc1)c1nnc(C)n1-2 (stereo partly drawn) [ARV-825, reference compound]
% of IKZF1 α protein reduction based on densitometry values ([3]; 0.1 μM, 6 h): >25% (>25% for 26-74% of IKZF1 protein reduction)
% of IKZF1 α protein reduction based on densitometry values ([3]; 1 μM, 6 h): >25% (>25% for 26-74% of IKZF1 protein reduction)
% of IKZF1 α protein reduction based on densitometry values ([3]; 10 μM, 6 h): >25% (>25% for 26-74% of IKZF1 protein reduction)
IKZF1 degradation ([3]; 6 h, 0.1-10 μM): ~50%
% of IKZF3 protein reduction based on densitometry values, IKZF3 Band I ([5]; 0.1 μM, 6 h): >25% (>25% for 26-74% of IKZF3 protein reduction)
% of IKZF3 protein reduction based on densitometry values, IKZF3 Band II ([5]; 0.1 μM, 6 h): >25% (>25% for 26-74% of IKZF3 protein reduction)
% of IKZF3 protein reduction based on densitometry values, IKZF3 Band I ([5]; 1 μM, 6 h): >25% (>25% for 26-74% of IKZF3 protein reduction)
% of IKZF3 protein reduction based on densitometry values, IKZF3 Band II ([5]; 1 μM, 6 h): >25% (>25% for 26-74% of IKZF3 protein reduction)
% of IKZF3 protein reduction based on densitometry values, IKZF3 Band I ([5]; 10 μM, 6 h): >25% (>25% for 26-74% of IKZF3 protein reduction)
% of IKZF3 protein reduction based on densitometry values, IKZF3 Band II ([5]; 10 μM, 6 h): >25% (>25% for 26-74% of IKZF3 protein reduction)
IKZF3 degradation ([5]; 6 h, 0.1-10 μM): ~60%

O=C1CCC(NC(=O)c2cccc3nnsc23)C(=O)N1 (stereo not drawn) [Compound 58]
Ki [1]: 10 to 50 µM

O=C1CCC(NC(=O)c2ccnc3scnc23)C(=O)N1 (stereo not drawn) [Compound 54, N-(2,6-dioxopiperidin-3-yl)thiazolo[5,4-b]pyridine-7-carboxamide]
Ki [1]: 1 to 10 µM

O=C1CCC(NC(=O)c2cccc3[nH]c(Cl)nc23)C(=O)N1 (stereo not drawn) [Compound 12, 2-chloro-N-(2,6-dioxopiperidin-3-yl)-1H-benzo[d]imidazole-4-carboxamide]
Ki [1]: < 1 µM

Cc1nc2c(C(=O)NC3CCC(=O)NC3=O)cccc2o1 (stereo not drawn) [Compound 51, N-(2,6-dioxopiperidin-3-yl)-2-methylbenzo[d]oxazole-4-carboxamide]
Ki [1]: 1 to 10 µM

Cc1nc2c(C(=O)NC3CCCC(=O)NC3=O)cccc2[nH]1 (stereo not drawn) [Compound 20, N-(2,7-dioxoazepan-3-yl)-2-methyl-1H-benzo[d]imidazole-4-carboxamide]
% of protein reduction based on densitometry values, SALL4 (24 H) [2]: ≤25% (≤25% for 0-25% of SALL4 protein reduction)
% of protein reduction based on densitometry values, IKZF 1 (24 H) [3]: ≤25% (≤25% for 0-25% of IKZF1 protein reduction)
% of protein reduction based on densitometry values, CK1α (24 H) [4]: ≤25% (≤25% for 0-25% of CK1a protein reduction)

Cn1cnc2cccc(C(=O)NC3CCC(=O)NC3=O)c21 (stereo not drawn) [Compound 5, N-(2,6-dioxopiperidin-3-yl)-1-methyl-1H-benzo[d]imidazole-7-carboxamide]
% of protein reduction based on densitometry values, SALL4 (24 H) [2]: ≤25% (≤25% for 0-25% of SALL4 protein reduction)
% of protein reduction based on densitometry values, IKZF 1 (24 H) [3]: ≤25% (≤25% for 0-25% of IKZF1 protein reduction)
% of protein reduction based on densitometry values, CK1α (24 H) [4]: ≤25% (≤25% for 0-25% of CK1a protein reduction)
